Assay results published in ChEMBL document CHEMBL1139605, “Novel ketal ligands for the glucocorticoid receptor: in vitro and in vivo activity” (Bioorg Med Chem Lett, 2005).
pEC50, pIC50: −log10 of the molar value. Blank lines part the entries; values can stand above or below the molecule they belong to.

What was measured:
[1] = biological target: T1, Glucocorticoid receptor (Homo sapiens, UniProt P04150); test: Inhibition of human glucocorticoid receptor alpha isoform
T1 sequence (P04150 whole entry): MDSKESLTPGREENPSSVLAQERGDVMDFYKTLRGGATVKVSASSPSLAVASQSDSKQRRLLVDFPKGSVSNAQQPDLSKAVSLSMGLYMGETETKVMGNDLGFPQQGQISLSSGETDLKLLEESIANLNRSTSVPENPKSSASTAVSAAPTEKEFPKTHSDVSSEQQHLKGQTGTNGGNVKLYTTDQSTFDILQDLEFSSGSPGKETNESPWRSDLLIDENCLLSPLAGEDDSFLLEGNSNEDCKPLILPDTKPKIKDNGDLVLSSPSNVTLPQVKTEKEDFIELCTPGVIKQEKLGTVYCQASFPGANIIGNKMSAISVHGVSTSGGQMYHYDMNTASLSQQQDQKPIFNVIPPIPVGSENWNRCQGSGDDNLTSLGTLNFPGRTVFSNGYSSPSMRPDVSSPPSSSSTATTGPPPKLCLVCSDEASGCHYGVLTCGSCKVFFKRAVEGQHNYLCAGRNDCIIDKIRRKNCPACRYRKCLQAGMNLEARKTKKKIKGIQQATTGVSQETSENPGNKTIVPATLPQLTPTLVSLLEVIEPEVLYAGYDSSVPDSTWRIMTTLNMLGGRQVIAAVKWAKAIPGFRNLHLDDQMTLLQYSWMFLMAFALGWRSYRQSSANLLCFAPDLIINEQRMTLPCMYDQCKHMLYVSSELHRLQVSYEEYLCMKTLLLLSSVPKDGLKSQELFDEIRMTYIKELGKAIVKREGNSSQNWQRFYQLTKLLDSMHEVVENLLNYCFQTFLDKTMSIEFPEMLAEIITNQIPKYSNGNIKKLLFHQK

[2] = Effective concentration required for induction of glutamine synthetase in human skeletal muscle cells using 58% radiolabeled Dexamethasone; type: functional
[3] = organism: Mus musculus; test: Effective concentration required for inhibition of interleukin-6 in mouse thioglycolate-elicited peritoneal exudate cell line using 66% radiolabeled Dexamethasone; type: functional
[4] = biological target: T1, Glucocorticoid receptor; test: Binding affinity for human glucocorticoid receptor
[5] = biological target: T2, Mineralocorticoid receptor (Rattus norvegicus, UniProt P22199); test: Binding affinity for rat mineralocorticoid receptor
T2 sequence (P22199 whole entry): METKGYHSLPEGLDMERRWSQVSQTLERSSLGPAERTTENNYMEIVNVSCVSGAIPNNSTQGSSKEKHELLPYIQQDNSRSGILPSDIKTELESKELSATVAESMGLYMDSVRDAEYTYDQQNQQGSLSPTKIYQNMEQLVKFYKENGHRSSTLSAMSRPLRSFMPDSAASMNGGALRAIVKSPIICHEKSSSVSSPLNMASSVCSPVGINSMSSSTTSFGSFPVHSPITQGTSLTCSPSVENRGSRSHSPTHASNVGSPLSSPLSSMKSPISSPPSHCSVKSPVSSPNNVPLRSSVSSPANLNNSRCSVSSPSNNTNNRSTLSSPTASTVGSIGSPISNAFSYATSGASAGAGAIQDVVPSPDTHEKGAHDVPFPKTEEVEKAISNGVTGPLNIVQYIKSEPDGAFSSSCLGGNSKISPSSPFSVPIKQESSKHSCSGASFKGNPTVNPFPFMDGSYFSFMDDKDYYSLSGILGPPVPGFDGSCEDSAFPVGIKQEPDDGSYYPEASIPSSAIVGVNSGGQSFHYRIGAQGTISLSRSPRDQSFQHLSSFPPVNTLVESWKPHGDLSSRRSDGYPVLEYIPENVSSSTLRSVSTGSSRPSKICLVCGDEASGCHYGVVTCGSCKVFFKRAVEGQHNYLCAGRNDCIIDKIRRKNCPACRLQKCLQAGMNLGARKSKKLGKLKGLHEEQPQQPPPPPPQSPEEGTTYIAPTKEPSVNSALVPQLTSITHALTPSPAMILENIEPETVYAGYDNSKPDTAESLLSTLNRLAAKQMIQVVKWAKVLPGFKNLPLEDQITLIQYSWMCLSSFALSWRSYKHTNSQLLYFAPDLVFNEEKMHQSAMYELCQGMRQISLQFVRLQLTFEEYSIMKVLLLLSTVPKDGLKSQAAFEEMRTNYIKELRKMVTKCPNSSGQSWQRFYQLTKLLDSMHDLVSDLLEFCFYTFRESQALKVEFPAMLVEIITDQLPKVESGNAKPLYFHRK

[6] = biological target: T3, Progesterone receptor (Homo sapiens, UniProt P06401); test: Binding affinity for human progesterone receptor
T3 sequence (P06401 whole entry): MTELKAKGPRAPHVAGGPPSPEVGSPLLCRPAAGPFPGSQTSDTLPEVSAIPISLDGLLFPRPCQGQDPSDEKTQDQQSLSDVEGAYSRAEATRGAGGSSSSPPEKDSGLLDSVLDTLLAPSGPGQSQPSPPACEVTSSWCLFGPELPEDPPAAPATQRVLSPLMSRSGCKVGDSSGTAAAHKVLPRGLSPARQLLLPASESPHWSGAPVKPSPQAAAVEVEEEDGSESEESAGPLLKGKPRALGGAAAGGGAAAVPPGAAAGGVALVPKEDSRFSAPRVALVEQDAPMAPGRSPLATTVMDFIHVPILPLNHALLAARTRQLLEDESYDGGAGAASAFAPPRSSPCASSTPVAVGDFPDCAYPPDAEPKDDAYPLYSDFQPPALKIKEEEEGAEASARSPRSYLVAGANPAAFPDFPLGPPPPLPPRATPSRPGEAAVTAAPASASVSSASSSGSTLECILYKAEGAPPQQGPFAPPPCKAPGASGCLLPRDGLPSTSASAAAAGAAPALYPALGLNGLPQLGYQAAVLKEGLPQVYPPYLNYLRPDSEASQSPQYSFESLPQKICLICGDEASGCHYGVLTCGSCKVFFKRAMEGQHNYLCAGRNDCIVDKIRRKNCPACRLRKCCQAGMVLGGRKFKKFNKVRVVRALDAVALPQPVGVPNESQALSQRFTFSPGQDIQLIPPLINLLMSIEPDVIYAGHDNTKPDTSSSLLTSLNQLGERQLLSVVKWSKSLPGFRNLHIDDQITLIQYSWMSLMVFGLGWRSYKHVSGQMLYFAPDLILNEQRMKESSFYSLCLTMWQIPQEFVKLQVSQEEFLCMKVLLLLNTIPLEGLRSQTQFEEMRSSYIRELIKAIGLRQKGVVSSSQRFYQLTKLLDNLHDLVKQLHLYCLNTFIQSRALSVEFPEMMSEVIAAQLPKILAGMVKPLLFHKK

[7] = biological target: Estrogen receptor beta (Homo sapiens, UniProt Q92731); test: Binding affinity for human estrogen receptor beta
[8] = biological target: T4, Estrogen receptor (Homo sapiens, UniProt P03372); test: Binding affinity for human estrogen receptor alpha
T4 sequence (P03372 whole entry): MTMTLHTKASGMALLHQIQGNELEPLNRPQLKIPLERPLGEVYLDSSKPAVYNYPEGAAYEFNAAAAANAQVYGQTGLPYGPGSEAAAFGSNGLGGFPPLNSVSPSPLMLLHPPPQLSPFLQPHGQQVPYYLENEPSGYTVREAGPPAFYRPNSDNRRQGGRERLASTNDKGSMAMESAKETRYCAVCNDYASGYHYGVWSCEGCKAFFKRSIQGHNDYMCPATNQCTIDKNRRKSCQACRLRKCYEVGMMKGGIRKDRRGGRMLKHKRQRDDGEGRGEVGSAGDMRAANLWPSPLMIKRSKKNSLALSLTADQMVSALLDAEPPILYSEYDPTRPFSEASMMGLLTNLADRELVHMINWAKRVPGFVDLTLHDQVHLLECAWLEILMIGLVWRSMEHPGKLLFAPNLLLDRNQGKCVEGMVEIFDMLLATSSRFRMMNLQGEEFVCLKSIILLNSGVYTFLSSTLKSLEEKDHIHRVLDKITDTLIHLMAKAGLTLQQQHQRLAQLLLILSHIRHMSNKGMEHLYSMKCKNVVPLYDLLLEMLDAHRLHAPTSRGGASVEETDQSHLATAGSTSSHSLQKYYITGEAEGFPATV

[9] = organism: Mus musculus; test: Effective concentration required for inhibition of interleukin-6 in mouse thioglycolate-elicited peritoneal exudate cell line using 79% radiolabeled Dexamethasone; type: functional
[10] = system: A549; test: Effective concentration for inhibition of interleukin-6 in human A549 lung carcinoma cell line using 67% radiolabeled Dexamethasone; type: functional, cell-based
[11] = system: A549; test: Effective concentration required for inhibition of interleukin-6 in human A549 lung carcinoma cell line using […]% radiolabeled Dexamethasone; type: functional, cell-based

Chain of Estrogen receptor beta (Q92731 whole entry): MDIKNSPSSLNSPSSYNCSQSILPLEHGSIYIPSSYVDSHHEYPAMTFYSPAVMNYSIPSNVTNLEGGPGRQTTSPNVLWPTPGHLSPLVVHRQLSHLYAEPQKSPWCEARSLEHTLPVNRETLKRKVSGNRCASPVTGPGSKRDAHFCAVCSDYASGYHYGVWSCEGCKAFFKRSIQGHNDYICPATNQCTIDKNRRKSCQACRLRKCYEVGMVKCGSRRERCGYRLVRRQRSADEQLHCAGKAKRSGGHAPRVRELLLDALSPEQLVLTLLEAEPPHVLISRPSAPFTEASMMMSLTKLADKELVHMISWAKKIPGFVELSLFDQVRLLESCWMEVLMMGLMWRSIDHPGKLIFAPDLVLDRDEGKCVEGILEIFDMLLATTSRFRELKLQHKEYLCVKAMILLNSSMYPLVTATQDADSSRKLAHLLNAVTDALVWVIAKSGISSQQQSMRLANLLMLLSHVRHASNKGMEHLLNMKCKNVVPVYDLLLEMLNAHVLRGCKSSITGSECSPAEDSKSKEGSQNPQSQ

Structure (SMILES): C=C[C@@H]1CO[C@@]2(CCC3=Cc4c(cnn4-c4ccc(F)cc4)C[C@@]32C)O1
pIC50 [1]: 7.42

Structure (SMILES): C[C@]12Cc3cnn(-c4ccc(F)cc4)c3C=C1CCCC21O[C@H](c2ccccc2)[C@@H](c2ccccc2)O1
pEC50 [3]: 7.59 | pIC50 [1]: 8.00

Structure (SMILES): C[C@]12Cc3cnn(-c4ccc(F)cc4)c3C=C1CC[C@@]21OC[C@H](c2ccccc2)O1
pIC50 [1]: 7.19

Structure (SMILES): C[C@]12Cc3cnn(-c4ccc(F)cc4)c3C=C1CC[C@@]21OC[C@@H](c2ccccc2)O1
pIC50 [1]: 7.59

The remaining lines, values ahead:

pEC50 [2]: 7.54 | pIC50 [1]: 8.05
Structure (SMILES): CCC[C@H]1OC2(CCCC3=Cc4c(cnn4-c4ccc(F)cc4)C[C@@]32C)O[C@@H]1CCC

pIC50 [4]: 7.62 | pIC50 [5]: < 5.00 | pIC50 [6]: < 6.00 | pIC50 [7]: < 5.00 | pIC50 [1]: 7.62 | pIC50 [8]: < 5.00
Structure (SMILES): C[C@H]1OC2(CCC3=Cc4c(cnn4-c4ccc(F)cc4)C[C@@]32C)O[C@@H]1C

pIC50 [1]: 8.08
Structure (SMILES): C[C@@H]1C[C@@H](C)OC2(CCCC3=Cc4c(cnn4-c4ccc(F)cc4)C[C@@]32C)O1 (stereo not given in full)

pEC50 [9]: 7.43 | pIC50 [1]: 8.60 | pEC50 [10]: 8.11
Structure (SMILES): C/C=C/[C@H]1OC2(CCCC3=Cc4c(cnn4-c4ccc(F)cc4)C[C@@]32C)O[C@@H]1/C=C/C

pIC50 [4]: 7.85 | pIC50 [5]: 5.12 | pIC50 [6]: < 6.00 | pIC50 [7]: < 5.00 | pIC50 [1]: 7.85 | pIC50 [8]: < 5.00
Structure (SMILES): C[C@]12Cc3cnn(-c4ccc(F)cc4)c3C=C1CCCC21OCCO1

pEC50 [11]: 7.04 | pIC50 [1]: 7.66
Structure (SMILES): CCCC[C@H]1OC2(CCCC3=Cc4c(cnn4-c4ccc(F)cc4)C[C@@]32C)O[C@@H]1CCCC
